Reference: patent publication US20110105543A1, “NOVEL TRIARYL DERIVATIVES USEFUL AS MODULATORS OF NICOTINIC ACETYLCHOLINE RECEPTORS” (NeuroSearch A/S, priority 2008, published 2011)

What was measured:
nAChR α7 receptors = target: T1, nAChR α7 receptors (Homo sapiens, UniProt P36544); experiment: Positive modulation of acetylcholine-induced currents at wild-type nAChR α7 receptors expressed in Xenopus laevis oocytes (two-electrode voltage clamp); format: cell-based; details: for effect on acetylcholine-induced current amplitude: compound 0.01-31.6 μM applied 30 s before and during 100 μM acetylcholine; for maximal modulation of the acetylcholine response (Imax) / EC50: nAChR α7 in Xenopus oocytes, 100 μM acetylcholine; for maximal modulation of the acetylcholine response (Imax): (test-control)/control*100%; for EC50: clamped at -60 mV, compound 0.01-31.6 μM, read-out: calculated EC50 value for positive modulation of 100 μM acetylcholine responses
T1 construct: expressed in transfected cells; host or cells: Xenopus laevis oocytes
Description: In this example the positive modulation of wild-type nAChR α7 receptors by Compound 2 (i.e. 4-[5-Amino-6-(2,4-dichloro-phenyl)-pyrimidin-4-yl]-phenol; FIGS. 1A and 1B) and by Compound 6 (i.e. 2′-Amino-5′,2″-difluoro-4″-trifluoromethyl-[1,1′;3′,1″]terphenyl-4-ol; FIGS. 2A and 2B) was determined using nAChR α7 receptors heterologously expressed in Xenopus laevis oocytes.
The electrical current through the nAChR α7 channel was measured using conventional two-electrode voltage clamp and nAChR α7 currents were activated by applying pulses of agonist-containing solution onto the nAChR α7 expressing oocyte.
In brief, the oocytes were placed in a recording chambers and continuously superfused with an Oocyte Ringer (OR) solution containing 90 mM NaCl, 2.5 mM KCl, 2.5 mM CaCl2, 1 mM MgCl2 and 5 mM HEPES (pH adjusted to 7.4). The oocytes were clamped at −60 mV and currents were induced by applying 20 s pulses of 100 μM acetylcholine dissolved in OR. The intervals between the acetylcholine applications were 5 minutes, during which the oocytes were washed with OR. The first three applications were control applications to insure a constant response level of 100 μM acetylcholine.
The positive modulation in the presence of Compound 2 or Compound 6 was calculated as (test-control)/control*100% and the concentration response curve for this positive modulation was fitted to the sigmoidal logistic equation: I=Imax/(1+(EC50/[compound])^n), where Imax represents the maximal modulation of the control response, EC50 is the concentration causing a half maximal response, and n is the slope coefficient.

T1 sequence (P36544 23-502): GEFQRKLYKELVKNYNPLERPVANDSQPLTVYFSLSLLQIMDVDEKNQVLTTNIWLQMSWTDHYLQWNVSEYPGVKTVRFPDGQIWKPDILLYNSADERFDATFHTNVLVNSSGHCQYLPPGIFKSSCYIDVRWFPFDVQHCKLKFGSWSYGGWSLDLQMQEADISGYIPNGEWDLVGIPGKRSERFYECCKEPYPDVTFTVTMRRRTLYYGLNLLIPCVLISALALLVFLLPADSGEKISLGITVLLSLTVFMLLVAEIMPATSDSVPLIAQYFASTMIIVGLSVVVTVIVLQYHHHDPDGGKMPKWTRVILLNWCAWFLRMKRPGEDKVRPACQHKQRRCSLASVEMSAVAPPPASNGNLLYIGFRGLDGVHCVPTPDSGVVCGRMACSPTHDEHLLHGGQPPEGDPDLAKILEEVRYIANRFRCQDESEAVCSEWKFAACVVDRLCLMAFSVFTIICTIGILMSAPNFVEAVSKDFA

**Q.** Which melting point does the source give for `COc1ccc(-c2cnnc(-c3ccc(C(F)(F)F)cc3F)c2N)cc1` [Compound 19, 3-(2-Fluoro-4-trifluoromethyl-phenyl)-5-(4-methoxy-phenyl)-pyridazin-4-ylamine] here?
**A.** 215.3 to 216.2 °C

**Q.** For `COc1ccc(-c2ncnc(-c3ccc(Cl)cc3Cl)c2N)cc1` [Compound 1, 4-(2,4-Dichloro-phenyl)-6-(4-methoxy-phenyl)-pyrimidin-5-ylamine], which melting point is on record?
**A.** 141.3 to 142.1 °C

**Q.** With `COc1ccc(-c2nc(C)nc(-c3ccc(C(F)(F)F)cc3F)c2N)cc1` [Compound 15, 4-(2-Fluoro-4-trifluoromethyl-phenyl)-6-(4-methoxy-phenyl)-2-methyl-pyrimidin-5-ylamine] as the compound, how does the melting point read?
**A.** 129.2 to 130.6 °C

**Q.** For `Nc1c(-c2ccc3[nH]ccc3c2)cncc1-c1ccc(C(F)(F)F)cc1F` [Compound 23, 3-(2-Fluoro-4-trifluoromethyl-phenyl)-5-(1H-indol-5-yl)-pyridin-4-ylamine], which melting point is on record?
**A.** 103 to 106 °C

**Q.** For `Nc1c(-c2ccc(S(N)(=O)=O)cc2)ncnc1-c1ccc(C(F)(F)F)cc1F` [Compound 11, 4-[5-Amino-6-(2-fluoro-4-trifluoromethyl-phenyl)-pyrimidin-4-yl]-benzenesulfonamide], which melting point is on record?
**A.** 174.8 to 176.1 °C

**Q.** Which melting point does the source give for `COc1ccc(-c2ncnc(-c3ccc(C(F)(F)F)cc3F)c2N)c(OC)c1` [Compound 7, 4-(2,4-Dimethoxy-phenyl)-6-(2-fluoro-4-trifluoromethyl-phenyl)-pyrimidin-5-ylamine] here?
**A.** 191.5 to 192.8 °C

**Q.** Which “effect on acetylcholine-induced current amplitude” value (nAChR α7 receptors) does the source give for `Nc1c(-c2ccc(O)cc2)ncnc1-c1ccc(Cl)cc1Cl` [Compound 2, 4-[5-Amino-6-(2,4-dichloro-phenyl)-pyrimidin-4-yl]-phenol] here?
**A.** robust increase

**Q.** What about the “maximal modulation of the acetylcholine response (Imax)” value (nAChR α7 receptors) of the same compound?
**A.** 299%

**Q.** What about the EC50 (nAChR α7 receptors) of the same compound?
**A.** 1200 nM

**Q.** And the melting point?
**A.** 97.3 to 98.2 °C

**Q.** With `Nc1c(-c2ccc(O)cc2)cncc1-c1ccc(C(F)(F)F)cc1F` [Compound 22, 4-[4-Amino-5-(2-fluoro-4-trifluoromethyl-phenyl)-pyridin-3-yl]-phenol] as the compound, how does the melting point read?
**A.** 133.6 to 134.8 °C

**Q.** Which melting point does the source give for `Nc1c(-c2ccc(O)cc2)cnnc1-c1ccc(C(F)(F)F)cc1F` [Compound 20, 4-[5-Amino-6-(2-fluoro-4-trifluoromethyl-phenyl)-pyridazin-4-yl]-phenol] here?
**A.** 251 to 252.2 °C

**Q.** Which melting point does the source give for `Cc1nc(-c2ccc(O)cc2)c(N)c(-c2ccc(C(F)(F)F)cc2F)n1` [Compound 16, 4-[5-Amino-6-(2-fluoro-4-trifluoromethyl-phenyl)-2-methyl-pyrimidin-4-yl]-phenol] here?
**A.** 175.4 to 176.9 °C

**Q.** With `Nc1c(-c2ccc(S(N)(=O)=O)cc2)cc(F)cc1-c1ccc(C(F)(F)F)cc1F` [Compound 25, 2′-Amino-5′,2″-difluoro-4″-trifluoromethyl-[1,1′;3′,1″]terphenyl-4-sulfonic acid amide] as the compound, how does the melting point read?
**A.** 189.4 to 191.2 °C

**Q.** Which melting point does the source give for `Nc1nc(-c2ccc(O)cc2)c(N)c(-c2ccc(C(F)(F)F)cc2F)n1` [Compound 18, 4-[2,5-Diamino-6-(2-fluoro-4-trifluoromethyl-phenyl)-pyrimidin-4-yl]-phenol] here?
**A.** 226.3 to 227.5 °C

**Q.** For `COc1ccc(-c2cncc(-c3ccc(C(F)(F)F)cc3F)c2N)cc1` [Compound 21, 3-(2-Fluoro-4-trifluoromethyl-phenyl)-5-(4-methoxy-phenyl)-pyridin-4-ylamine], which melting point is on record?
**A.** 169.5 to 170.3 °C

**Q.** For `Nc1c(-c2ccc(O)cc2)cc(F)cc1-c1ccc(C(F)(F)F)cc1F` [Compound 6, 2′-Amino-5′,2″-difluoro-4″-trifluoromethyl-[1,1′;3′,1″]terphenyl-4-ol], which “effect on acetylcholine-induced current amplitude” value (nAChR α7 receptors) is on record?
**A.** robust increase

**Q.** What about the “maximal modulation of the acetylcholine response (Imax)” value (nAChR α7 receptors) of the same compound?
**A.** 361%

**Q.** What about the EC50 (nAChR α7 receptors) of the same compound?
**A.** 1400 nM

**Q.** What about the melting point of the same compound?
**A.** 97.8 to 98.9 °C

**Q.** For `COc1ccc(-c2nc(C)nc(-c3ccc(C(F)(F)F)cc3F)c2[N+](=O)[O-])cc1` [Compound 13, 4-(2-Fluoro-4-trifluoromethyl-phenyl)-6-(4-methoxy-phenyl)-2-methyl-5-nitro-pyrimidine], which melting point is on record?
**A.** 100.8 to 101.8 °C

**Q.** For `COc1ccc(-c2nc(C)nc(-c3ccc(C(F)(F)F)cc3F)c2N)cc1Cl` [Compound 12, 4-(3-Chloro-4-methoxy-phenyl)-6-(2-fluoro-4-trifluoromethyl-phenyl)-2-methyl-pyrimidin-5-ylamine], which melting point is on record?
**A.** 104.5 to 105.2 °C

**Q.** For `COc1ccc(-c2cc(F)cc(-c3ccc(C(F)(F)F)cc3F)c2N)cc1` [Compound 5, 5′,2″-Difluoro-4-methoxy-4″-trifluoromethyl-[1,1′;3′,1″]terphenyl-2′-ylamine], which melting point is on record?
**A.** 85.2 to 86.3 °C

**Q.** With `Cc1nc(-c2ccc3c(c2)OCO3)c(N)c(-c2ccc(C(F)(F)F)cc2F)n1` [Compound 14, 4-Benzo[1,3]-dioxol-5-yl-6-(2-fluoro-4-trifluoromethyl-phenyl)-2-methyl-pyrimidin-5-ylamine] as the compound, how does the melting point read?
**A.** 162.5 to 163.3 °C

**Q.** For `COc1ccc(-c2nc(N)nc(-c3ccc(C(F)(F)F)cc3F)c2N)cc1` [Compound 17, 4-(2-Fluoro-4-trifluoromethyl-phenyl)-6-(4-methoxy-phenyl)-pyrimidine-2,5-diamine], which melting point is on record?
**A.** 125.8 to 127.1 °C

**Q.** For `COc1ccc(-c2ncnc(-c3ccc(C(F)(F)F)cc3F)c2N)c(O)c1` [Compound 9, 2-[5-Amino-6-(2-fluoro-4-trifluoromethyl-phenyl)-pyrimidin-4-yl]-5-methoxy-phenol], which melting point is on record?
**A.** 150 to 151.5 °C

**Q.** For `Nc1c(-c2ccc3[nH]ccc3c2)ncnc1-c1ccc(C(F)(F)F)cc1F` [Compound 10, 4-(2-Fluoro-4-trifluoromethyl-phenyl)-6-(1H-indol-5-yl)-pyrimidin-5-ylamine], which melting point is on record?
**A.** 216.1 to 217.8 °C
